Measured values from patent publication US20200163947A1 (Nortic Holdings Inc., priority 2018, published 2020).
In brackets after ≈: the same amount, converted by molar mass. Like-named read-outs stand apart in the source and are kept apart here.

Assays:
[1] = 25° C.; cited from earlier work
[2] = Single dose parallel plasma and CSF pharmacokinetics and relative bioavailability study in rats; type: in vivo; conditions: both sexes, Wistar, rat, plasma
Method: The pharmacokinetics study was performed in 6 healthy rats (3 males and 3 females). […] Blood samples were collected at 15 minutes, 30 minutes, and at 1, 2, 4, 6, 8, 12 and 24 hours post-dose. CSF samples were collected at 1, 2, 4, and 24 hours post-dose. All samples were analyzed using a validated analytical LC-MS method.

[3] = cited from earlier work

COCCOC(=O)C1=C(C)NC(C)=C(C(=O)OC(C)C)C1c1cccc([N+](=O)[O-])c1 (stereo not drawn) [nimodipine, isopropyl 2-methoxyethyl 1,4-dihydro-2,6-dimethyl-4-(m-nitrophenyl)-3,5-pyridinedicarboxylate]
solubility in water [1]: 2.5 µg/mL (≈ 5.97 µM) | bioavailability ([2]; 0.73 mg, continuous intravenous infusion, read-out: absolute bioavailability): 100% | bioavailability ([2]; rats, 5.5 mg oral solution by oral gavage, Mean, read-out: Absolute Bioavailability (F %)): 22% | half-life equivalent to earlier elimination rates ([3]; man): 1 to 2 h | concentration in the cerebrospinal fluid ([3]; nimodipine-treated subarachnoid hemorrhage (SAH) patients): ≤ 12.5 ng/mL | Cmax in patients with hepatic cirrhosis versus normal ([3]; oral administration): approximately double
